These results are taken from patent publication US20220017468A1, “ISOQUINOLINE COMPOUNDS AND THEIR USE IN TREATING AhR IMBALANCE” (Dermavant Sciences GmbH, priority 2020, published 2022).

Series [1] deals with T1, AhR (Homo sapiens, UniProt P35869).
T1 construct: LS-180 cells stably transfected with a CYP1A1 promoter-linked beta-lactamase gene reporter construct; endogenous in cells; host or cells: CYP1A1-bla LS-180 cells
T1 sequence (P35869 11-848): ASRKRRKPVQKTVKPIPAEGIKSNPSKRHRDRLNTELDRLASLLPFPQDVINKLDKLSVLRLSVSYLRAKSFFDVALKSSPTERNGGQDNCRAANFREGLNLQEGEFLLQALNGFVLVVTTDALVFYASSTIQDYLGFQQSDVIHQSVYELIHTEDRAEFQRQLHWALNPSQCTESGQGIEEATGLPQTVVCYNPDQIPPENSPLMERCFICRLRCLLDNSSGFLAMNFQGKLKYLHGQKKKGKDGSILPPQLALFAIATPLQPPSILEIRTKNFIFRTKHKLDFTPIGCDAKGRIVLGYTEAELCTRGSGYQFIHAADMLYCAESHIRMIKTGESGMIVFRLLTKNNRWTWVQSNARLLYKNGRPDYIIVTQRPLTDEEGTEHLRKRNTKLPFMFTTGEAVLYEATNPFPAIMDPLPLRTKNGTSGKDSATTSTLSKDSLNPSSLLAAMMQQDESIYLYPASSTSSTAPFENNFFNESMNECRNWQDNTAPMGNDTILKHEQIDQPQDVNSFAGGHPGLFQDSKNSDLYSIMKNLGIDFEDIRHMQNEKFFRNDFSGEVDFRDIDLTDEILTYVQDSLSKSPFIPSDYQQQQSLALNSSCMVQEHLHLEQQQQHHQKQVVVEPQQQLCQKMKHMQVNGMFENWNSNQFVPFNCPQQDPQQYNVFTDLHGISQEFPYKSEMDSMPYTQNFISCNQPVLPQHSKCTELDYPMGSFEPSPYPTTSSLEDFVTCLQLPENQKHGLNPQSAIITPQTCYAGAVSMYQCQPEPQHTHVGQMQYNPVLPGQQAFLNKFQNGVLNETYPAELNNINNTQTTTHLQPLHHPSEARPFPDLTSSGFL
Description: CYP1A1-bla LS-180 AhR agonist assay. The following applies: CYP1A1-bla LS-180 cells, ~20 hrs. In kind it is cell-based.
Description: LS-180 cells stably transfected with a CYP1A1 promoter-linked beta-lactamase gene reporter construct (termed CYP1A1-bla LS-180 cells) were used to characterize the ability of compounds to activate AhR. In brief, AhR activity was measured using the LiveBLAzer assay kit which utilizes a beta lactamase (bla) reporter gene downstream of CYP1A1 promoter, which metabolizes its substrate to give a fluorescent readout. For the agonist assay, CYP1A1-bla LS-180 cells were treated with increasing concentrations of compound over a 100,000-fold concentration range.
CYP1A1-bla LS-180 cells in exponential growth phase were washed twice with DPBS then seeded into 96-well microplates (50,000 cells/well) and allowed to adhere. […] The LiveBLAzer FRET B/G β-lactamase substrate was added in the final hour of incubation and resulting blue/green fluorescence was measured using a 96-well microplate reader.
AhR activity was measured as a function of beta-lactamase expression using a fluorescence resonance energy transfer-based readout. TCDD and FICZ were used as controls to validate the system.

In series [2] the test system is primary human cell culture platforms. Description: BioMAP Diversity Plus profiling. In kind it is cell-based. The following applies: profiles overlaid.
Series [3] addresses T1, AhR. The following applies: value reported by Invitrogen; cited from earlier work.
Series [4] is described as follows: oxygen radical absorbance capacity (ORAC) test. In kind it is biochemical. The following applies: Trolox Equivalent Values.
Another series concerns IL-17A. As to the kind of experiment: CD4+ T cell IL17 assay. In kind it is cell-based, human. As for the experimental part: Therefore, compounds are evaluated for their ability to reduce IL-17 production from CD4+ T cells stimulated under Th17-skewing conditions. Cryopreserved human CD4^+ T cells (AllCells, LLC, Alameda, CA and Stemcell Technologies, Inc. Vancouver, Canada) were differentiated to the Th17 subtype by culturing for 5 days in CD3-coated tissue culture plates (2 μg/mL) in Iscove's modified Dulbecco's medium (IMDM) containing 10% HI-FBS, 55 μM 2-mercaptoethanol and soluble anti-CD28 (3 μg/mL) in the presence of a Th17 skewing cocktail, [IL-1β (10 ng/mL), IL-6 (30 ng/mL), TGFβ (0.5 ng/mL), IL-21 (10 ng/mL), IL-23 (10 ng/mL), anti-IFNγ (10 μg/mL) and anti-IL-4 (10 μg/mL)] in the presence or absence of serially diluted compounds. Secretion of IL-17 from polarized CD4+ T-cells was measured in the culture media using an MSD (Meso Scale Discovery) detection system following 5 day exposure toTh17 polarization reagents with and without compounds.

For another series, the target named is T2, CB2 (Homo sapiens, UniProt P34972).
T2 construct: expressed in transfected cells
As to the kind of experiment: fluorescence-based agonist assay using genetically modified yeast. In kind it is cell-based. The following applies: read-out: CB2 pEC50 (converted).

In the next series the test system is Nrf2. As to the kind of experiment: luciferase-based reporter assay for NQO1 gene expression. In kind it is cell-based. On the technique in general: Reporter assays use an easily measured gene product as a stand-in for the process of interest.

T2 sequence (P34972 whole entry, species assumed): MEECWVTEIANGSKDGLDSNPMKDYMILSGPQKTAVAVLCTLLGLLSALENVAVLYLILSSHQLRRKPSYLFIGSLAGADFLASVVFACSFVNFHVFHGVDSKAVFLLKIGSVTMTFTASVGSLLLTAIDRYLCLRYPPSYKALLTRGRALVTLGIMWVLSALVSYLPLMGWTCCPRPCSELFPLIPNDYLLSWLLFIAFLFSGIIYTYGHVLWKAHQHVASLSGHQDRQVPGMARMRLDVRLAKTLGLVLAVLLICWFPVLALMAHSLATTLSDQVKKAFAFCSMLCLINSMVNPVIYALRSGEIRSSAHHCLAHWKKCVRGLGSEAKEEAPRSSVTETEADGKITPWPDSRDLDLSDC

Take “6-formylindolo(3,2-b)carbazole [FICZ, reference compound]”: the pEC50 – broadly, the negative decadic logarithm of the EC50, by convention in mol/L – on AhR [1] worked out at 6.82. Besides, the “sIL-17 in BioMAP” value in series [2] was “not seen”.
At AhR [1], `Clc1cc2c(cc1Cl)Oc1cc(Cl)c(Cl)cc1O2` [TCDD] registered a pEC50 of 10.34. The “pEC50 reported by Invitrogen” value at AhR [3] is on record as 9.70.
On to `CC(C)c1c(O)cc(/C=C/c2ccccc2)cc1O` [tapinarof], for which, in series [4], the Hydroxyl-radical was 1067 TEV, the Peroxyl radical-hydro worked out at 4663 TEV, the Peroxyl radical-lipo stood at 2164 TEV and the Peroxynitrite stood at 140 TEV. For the same molecule, in series [4], the Singlet oxygen stood at 3581 TEV, the Superoxide anion stood at 11241 TEV and the “Total ORAC value” came to 22855 TEV. Also, the IC50 in the series with IL-17A (T-cell, MSD-based readout of secreted IL-17A from Th17-polarized primary human CD4+ peripheral blood T cells, read-out: IL-17A pIC50 (converted)) is 0.00316 µM. The IL-17A production result in the series with IL-17A (Th17-skewing conditions, applied throughout culture) was “suppression of IL-17A”. The EC50 at CB2 was 0.158 µM. Further, the “Nrf2 pEC50” value in the series with Nrf2 was “pEC50 = 7.6”. Further, in series [2], the “sIL-17 in BioMAP” value was “not seen”.
